Reference: patent US7256208B2 (priority 2003, dated 2007)

Tests used:
AR = target: T1, AR (Rattus norvegicus, UniProt P15207)
T1 sequence (P15207 1-902): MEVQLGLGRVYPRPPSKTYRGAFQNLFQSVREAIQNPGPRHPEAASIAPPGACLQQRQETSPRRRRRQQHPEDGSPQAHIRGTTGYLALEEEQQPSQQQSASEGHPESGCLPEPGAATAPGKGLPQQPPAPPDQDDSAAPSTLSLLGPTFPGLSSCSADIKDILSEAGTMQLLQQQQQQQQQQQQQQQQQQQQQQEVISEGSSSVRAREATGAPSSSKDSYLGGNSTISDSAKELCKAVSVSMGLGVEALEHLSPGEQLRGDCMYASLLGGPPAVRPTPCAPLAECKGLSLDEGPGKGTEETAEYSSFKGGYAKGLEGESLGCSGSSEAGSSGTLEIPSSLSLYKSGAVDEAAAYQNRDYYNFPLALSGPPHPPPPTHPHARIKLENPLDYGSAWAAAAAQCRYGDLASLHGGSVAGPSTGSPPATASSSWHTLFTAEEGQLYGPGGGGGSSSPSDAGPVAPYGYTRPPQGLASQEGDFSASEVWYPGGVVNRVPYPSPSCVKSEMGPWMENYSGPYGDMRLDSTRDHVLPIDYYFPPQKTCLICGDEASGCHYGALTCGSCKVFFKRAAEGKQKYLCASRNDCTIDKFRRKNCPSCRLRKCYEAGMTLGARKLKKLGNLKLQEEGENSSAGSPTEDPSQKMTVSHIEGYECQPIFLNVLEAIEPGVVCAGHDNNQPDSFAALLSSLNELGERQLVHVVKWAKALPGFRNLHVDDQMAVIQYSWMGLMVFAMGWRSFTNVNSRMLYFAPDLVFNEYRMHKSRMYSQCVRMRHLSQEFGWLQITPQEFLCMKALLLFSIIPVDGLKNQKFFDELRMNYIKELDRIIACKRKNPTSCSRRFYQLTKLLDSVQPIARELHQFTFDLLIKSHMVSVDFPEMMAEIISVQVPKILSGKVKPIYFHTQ
Source text: The activity of compounds of the present invention as AR agonists was investigated in an immature male rat model, a recognized test of anabolic effects in muscle and sustaining effects in sex organs for a given compound, as described in L. G. Hershberger et al., Proc. Soc. […] Biol. Med., 83, 175 (1953); B. L. Beyler et al, “Methods for evaluating anabolic and catabolic agents in laboratory animals”, J. Amer. Med. Women's Ass., 23, 708 (1968); H. Fukuda et al., “Investigations of the levator ani muscle as an anabolic steroid assay”, Nago Dai. Yak. Ken. Nem. 14, 84 (1966) the disclosures of which are herein incorporated by reference.
The basis of this assay lies in the well-defined action of androgenic agents on the maintenance and growth of muscle tissues and sexual accessory organs in animals and man. […] J. Anat. […] Ital. Biol. Sper. […] II. […] Ital. Biol. Sper. 42, 1600 (1966); A. Boris et al., Steroids 15, 61 (1970). As described above, the effects of androgens on maintenance of male sexual accessory organs, such as the prostate and seminal vesicles, is well described. Castration results in rapid involution and atrophy of the prostate and seminal vesicles. This effect can be reversed by exogenous addition of androgens. […]

[1] = system: wild type AR (MDA 453 cells); details: read-out: Kd for [3H]-DHT, Scatchard analysis
Description: For the whole-cell binding assay, human LNCaP cells (T877A mutant AR) or MDA 453 (wild type AR) in 96-well microtiter plates containing RPMI 1640 or DMEM supplemented with 10% charcoal stripped CA-FBS (Cocaleco Biologicals) respectively, were incubated at 37° C. to remove any endogenous ligand that might be complexed with the receptor in the cells.
For the saturation analysis, the difference between the total binding and the non-specific binding, was defined as specific binding. […] See e.g. D. Rodbard, Mathematics and statistics of ligand assays: an illustrated guide: In: J. Langon and J. J. Clapp, eds., Ligand Assay, Masson Publishing U.S.A., Inc., New York, pp. 45-99, (1981), the disclosure of which is herein incorporated by reference.
Two replicates were used for each sample.

Compound: N#Cc1ccc(N2C(=O)N/C(=C\c3ccccc3O)C2=O)c2ccccc12
- melting point: 251 to 252 °C

Compound: N#Cc1ccc(N2C(=O)N/C(=C\c3ccc(O)cc3)C2=O)c2ccccc12
- melting point: > 275 °C

Compound: CCC(=O)O[C@H]1CC[C@H]2[C@@H]3CCC4=CC(=O)CC[C@]4(C)[C@H]3CC[C@]12C [TP, testosterone propionate]
- potency relative to free T (AR; TP versus free T): 10-30 fold
- EC50 (increase in organ weight) (AR; castrated rats, dosing for 3 days): ~0.03 mg

Compound: tritiated dihydrotestosterone [[^3H]-DHT]
- Kd [1]: 0.7 nM
